# Patent US11648199B2 (AI Therapeutics, Inc, priority 2014, dated 2023)
# Where “and” joins values, the source holds several entries; their conditions need not be identical. Equal values may be shown once. Entries after “also recorded” stand apart in the source; their conditions may differ. Read-outs that look alike come from different tables or passages of the source.
# Experiments:
# [1] = Rapamycin in lung and blood by LC-MS/MS after oropharyngeal aspiration (OPA) or oral gavage; format: in vivo, male C57BL/6 mice
# Description: Test Chemical Preparation: Evans Blue was prepared at 0.5% w/v in sterile distilled water. Rapamune Oral® was administered as supplied for oral dosing.
# Dosing: Each animal was weighed prior to dosing to determine the amount of dose to be administered. A single gavage dose was administered using a […], glass syringe (Hamilton, Reno, Nev.) fitted with a ball-tipped 20-G stainless steel gavage dosing needle (Popper & Sons Inc., New Hyde Park, N.Y.). The dose administered to each animal was determined from the weight of the full syringe minus that of the empty syringe. The dosing time was recorded. Dosing of animals was spaced apart to allow blood collection at the appropriate times. The dose formulations administered to each group are shown below.
# Each mouse was anesthetized with isoflurane, and restrained with the mouth open. The tongue was held to one side of the mouth with forceps, and the dose was slowly injected into the distal part of the oral cavity. The nostrils were covered with a finger for two breaths to ensure aspiration (Rao et al., 2003).
# Collection of Blood and Lung Samples: At study termination (1 or 72 h after dosing), mice were anesthetized by exposure to CO2, and blood was collected by cardiac puncture with dipotassium EDTA as anticoagulant. Lung tissue was excised and divided into the right and left lung. The left lung was used for analysis, and the right lung flash frozen in liquid nitrogen and stored at −70° C. for further analysis.
# Triamcinolone was used as internal standard.
# Lung homogenate was prepared by homogenization of weighed lung samples with 2.8-mm ball bearings in a homogenizer with tissue+deionized water (1:3 w/v) in a SPEX SamplePrep 2010 Geno/Grinder.
# The concentrations of standards were arranged so that each standard came from an alternate stock standard. A six-point calibration curve, each made in triplicate, was employed for analyte quantitation. A simple linear regression model with or without weighting was employed for curve fitting. The concentration range determined was from 1-2000 ng/mL in blood and 2-2000 ng/mL in lung homogenate.
# Thirty (30) μL of matrix, 30 μL of spiking solution (methanol for blanks and samples), 10 μL Internal standard solution (in MeOH) and 90 μL of MeOH were pipetted into microcentrifuge tubes, vortexed briefly, then centrifuged for 6 min at 10,000 RPM at −4° C. Aliquots (90 μL) of supernatant were transferred to LC vial inserts, and then analyzed by LC-MS/MS (Table 2).
# [2] = system: S6 phosphorylation (mTOR pathway); test: Phosphorylated S6 by western blot in AML cells; format: cell-based, human; conditions: 20 nM, 24 hours (FIG. 7, top)
# [3] = system: Phospho-S6 Ribosomal Protein (Ser240/244); test: S6-P/total S6 western blot of rat lung homogenates after inhalation; format: in vivo, Sprague-Dawley rats; conditions: inhaled, target dose 0.354 mg/kg (FIG. 8B)
# Description: Lungs samples from each animal were collected and snap frozen. The individual frozen lung samples were homogenized (Qiagen TissueLyser LT according to manufacturer's protocols) in 1×RIPA Buffer with protease and phosphatase inhibitors. […] The Western blot images were analyzed by NIH imageJ v1.48 to generate the respective antibody reactivity/intensity and create the ratio of S6 phosphorylation (S6-P) to total S6 intensities for each lung sample. The S6-P/total S6 ratios (y-axis) for sample organized by timepoint group (X-axis) were plotted on a one grouping variable scatter plot vertical graph (GraphPad, version 4.0), all samples in groups are represented by filled in black dots (●) on the graph and average is shown by the horizontal line between the dots within each respective group (FIG. 8B).
# [4] = Particle size distribution by laser diffraction after size reduction; format: physicochemical
# Description: For jet milling, a lab scale MCOne unit from Jetpharma was used with the following operating conditions: venturi pressure 2-4 bar, milling pressure 3-5 bar, feed rate 90 g/h. For wet polishing, feed suspensions were prepared using purified water. A microfluidics high pressure homogenizer was used for the size reduction step and the resulting suspension was spray-dried. Details of the wet polishing process are set forth below.
# The high pressure homogenizer used for the size reduction step of the wet polishing process was a pilot-scale Microfluidics High Pressure Homogenizer equipped with an auxiliary processing module (200 micron) and a 100 micron interaction chamber was used. The unit was operated at ˜455 bar (˜30 bar in the intensifier module hydraulic pressure). After microfluidization the fluid was removed by spray drying to generate a dry powder. A laboratory scale spray dryer, SD45 (BÜCHI, model B-290 Advanced) was equipped with a two fluid nozzle (cap and diameter were 1.4 and 0.7 mm, respectively). Two cyclones in series were used (being the first the standard Buchi cyclone and the second the high-performance Buchi cyclone) to collect the dried product. The spray drying unit was operated with nitrogen and in single pass mode, i.e. without recirculation of the drying nitrogen. The aspirator, blowing nitrogen, was set at 100% of its capacity (flow rate at maximum capacity is approximately 40 kg/h). The flow rate of the atomization nitrogen was adjusted to a value in the rotameter of 40±5 mm. Before feeding the product suspension, the spray dryer was stabilized with purified water, during which the flow rate was adjusted to 6 ml/min (20% in the peristaltic pump). The inlet temperature was adjusted to achieve the target outlet temperature (45° C.). After stabilization of the temperatures, the feed of the spray dryer was commuted from purified water to the product suspension (keeping the same flow rate used during stabilization) and the inlet temperature once again adjusted in order to achieve the target outlet temperature. At the end of the stock suspension, the feed was once more commuted to purified water in order to rinse the feed line and perform a controlled shut down. The dry product in the collection flasks under both cyclones was weighed and the yield calculated as the mass percentage of the dry product in relation to the total solids in the suspension fed to the high pressure homogenizer.
# Particle size distribution was analyzed by laser diffraction. Solid state characterization (for polymorphic form and purity) was performed by high pressure liquid chromatography (HPLC), X-ray powder diffraction (XRPD), and differential scanning calorimetry (mDSC). Water content was determined by the Karl Fischer method.
# [5] = IV 10 mg/kg, 24 hours after single dose; cited from earlier work
# [6] = sirolimus in lymphangioleiomyomatosis; cited from earlier work
# [7] = clinical use; cited from earlier work
# [8] = system: TSC2 deficient TRI-AML101 cell line; test: Cell viability, 10 point dose response, CellTiter-Glo; conditions: 72 hours after compound addition, relative to DMSO control (FIG. 7, bottom)
# Description: Two thousand cells in 50 uL of growth media (DMEM, 10% FBS, and 1% Penicillin/Streptomycin) were plated per well in a 96 well plate. […] 72 hours after compound addition, relative cell viability was determined by CellTiter-Glo® luminescence assay (Promega) and expressed as a percentage relative to vehicle (DMSO) treated control cells.
# [9] = Biodistribution of rapamycin via inhalation, first study (single dose and 5 days)
# [10] = inhaled 0.0360 mg/kg/day once a day, trough day 5
# [11] = inhaled 1.0000 mg/kg/day once a day, trough day 5
compound,measurement,setting,value
"CO[C@H]1C[C@@H]2CC[C@@H](C)[C@@](O)(O2)C(=O)C(=O)N2CCCC[C@H]2C(=O)O[C@H]([C@H](C)C[C@@H]2CC[C@@H](O)[C@H](OC)C2)CC(=O)[C@H](C)/C=C(\C)[C@@H](O)[C@@H](OC)C(=O)[C@H](C)C[C@H](C)/C=C/C=C/C=C/1C [Rapamycin, (3 S,6R,7E,9R,10R,12R,14S,15E,17E,19E,21S,23 S,26R,27R,34aS)-9,10,12,13,-14,21,22,23,24,25,26,27,32,33,34,34a-hexadecahydro-9,27-dihydroxy-3-[(1R)-2-[(1S,3R,4R)-4-hydroxy-3-methoxycyclohexyl]-1-methylethyl]-10,21-dimethox-y-6,8,12,14,20,26-hexamethyl-23,27-epoxy-3H-pyrido[2,1-c][1,4]oxaazacyclohentriacontine-1,5,11,28,29(4H,6H,31H)-pentone]","rapamycin in blood, in words","[1]; OPA 1 mg/kg, 72 h",below the limit of quantitation; also recorded: undetectable
same,Blood (ng/ml),"[1]; OPA 1 mg/kg, 72 h post-dose, individual mice",<ELOQ
same,Lung (ng/g tissue),"[1]; gavage (Rapamune Oral) 1 mg/kg, 1 h post-dose, individual mice, 1 mg/kg",<LOQ
same,"rapamycin in lung or blood, in words","[1]; oral (gavage) 1 mg/kg, 72 hrs",undetectable
same,S6 phosphorylation,[2],potently inhibits S6 phosphorylation
same,S6 phosphorylation in lung tissue,[3],Inhibits S6 Phosphorylation
same,PSD Dv10,[4]; jet milling,1.5 μm and 1.51 μm
same,PSD Dv50,[4]; jet milling,2.7 μm and 2.74 μm
same,PSD Dv90,[4]; jet milling,4.9 μm and 4.91 μm
same,PSD Dv10,[4]; wet polishing,1.51 μm
same,PSD Dv50,[4]; wet polishing,2.74 μm
same,PSD Dv90,[4]; wet polishing,5.0 μm and 4.91 μm
same,Rapamycin in Blood,[5],31 ng/mL
same,Rapamycin in Lung,[5],721 ng/g
same,blood concentrations reported,[6],5 to 15 ng/mL
same,lung toxicity,[7],"pulmonary toxicity, usually in the form of interstitial pneumonitis"
same,lowest concentration at which viability was inhibited,[8],0.05 nM
same,Rapamycin in Blood,[9]; [10],4 ng/mL
same,Rapamycin in Lung,[9]; [10],87 ng/g
same,Rapamycin in Blood,[9]; [11],746 ng/mL
same,Rapamycin in Lung,[9]; [11],17163 ng/g
same,Rapamycin in Lung,"[9]; inhaled 1.00 mg/kg/day, 12 hrs after a single dose",14831 ng/g
